These results are taken from patent EP2527323A1, “Urea carbonyl disulfide derivatives and their therapeutic uses” (NOSCIRA, S.A., priority 2011, dated 2012).

One may read the pEC50 as −log10 of the EC50, conventionally taken in molar units.

pEC50: −log10 of the molar value.

Experiment [1] deals with T1, human recombinant GSK3β (Homo sapiens, UniProt P49841).
T1 construct: 6His (N); purchased Millipore (Billerica, MA, USA)
Briefly: GSK-3β assay (Z'-LYTE FRET enzymatic activity). The class given is biochemical. Particulars: 2 nM enzyme (N-terminal 6His-tagged, H350L mutation), 12.5 µM ATP, 2 µM Ser/Thr 9 peptide, 60 min at room temperature, 1% DMSO; read-out: GSK3β inhibition average EC50. As for the experimental part:
The enzymatic activity of GSK3β was determined with a commercial system based on the Z'-LYTE® technology, available from Invitrogen Life Technologies (Carlsbad, CA, USA), using human recombinant GSK3β (N-terminal 6His-tagged recombinant enzyme with an H350L mutation) from Millipore (Billerica, MA, USA) as the enzyme source. This technology utilizes the fluorescence resonance energy transfer ("FRET") process between fluorescein and coumarin. The assay principle is based on the differential sensitivity of phosphorylated and non-phosphorylated peptide to proteolytic cleavage, which precludes the energy transfer process between the two fluorophores attached to both sides of the cleavage site. […] The latter is a synthetic peptide, provided by Invitrogen under the commercial name "Ser/Thr 9 peptide", and it is based upon the sequence of a GSK3β substrate protein (glycogen synthase I) containing Ser-641. The peptide is labeled at both ends with fluorescein and coumarin. The assay is carried out in the presence of different concentrations of the tested compound, at a final 1% (v/v) DMSO concentration. After a 60 min incubation at room temperature, 5 µl of a commercial protease solution (sold by the same vendor in the assay kit) is added and a subsequent 1h incubation at room temperature is performed, before adding 5 µl of a suitable "stop solution", also provided by the vendor in the kit. After that, fluorescence intensity is recorded, monitoring emission at both 445 and 520 nm, upon excitation at 400 nm. An emission ratio is finally calculated, using the quotient among the emission at 445 nm divided by that at 520 nm.
The emission ratio of each tested sample is normalized to that of the control wells, so that for every compound concentration the percentage of inhibition is calculated by using the following equation: % Inhibition = 100⋅(E-S)/(E-B) [formula] wherein "S" is the emission ratio of the sample being considered, "E" is the average emission ratio of wells, including enzyme in the absence of inhibitors, and "B" is the average emission ratio of wells without enzyme. The inhibition values obtained at every compound concentration are finally used to calculate the EC50 of the tested compound, this parameter being the concentration of the compound which causes 50% of inhibition. For that purpose, the data were fitted to a classical 4-parameters isotherm equation using the nonlinear regression function of GraphPad™ Prism 5.0 (GraphPad Software Inc.). Such equation is described below: % Inhibition = L + (H-L)/(1 + (((EC50)/(C)))^n) [formula] wherein "L" is the lower asymptote of the theoretical sigmoidal curve, "H" is the higher asymptote, "C" is the concentration of compound and "n" is the Hill coefficient.

The subject of experiment [2] is Ser-396 residue of Tau protein in human neuroblastoma SH-SY5Y cells. In words: Cellular assay: phosphorylation at Ser-396 of Tau protein (ELISA). Format: cell-based. Particulars: 18 h incubation at 37°C, 1% DMSO, normalized to untreated cells, read-out: pS*er396-Tau average EC50. As for the experimental part: The effect of the compound in cells is determined by monitoring the level of phosphorylation at the Ser-396 residue of Tau protein in human neuroblastoma SH-SY5Y cells. Cells are grown in 96-well plates: 30,000 cells per well in a volume of 100 µl of 1:1 MEM:Ham's F12 medium including 10% (v/v) fetal bovine serum, 100 U/ml penicillin, 100 µg/ml streptomycin and 1% (v/v) 100-fold concentrated commercial stock of non-essential aminoacids (Gibco, Carlsbad, CA, USA), and incubated at 37°C during 24 h. Then, the corresponding amount of test compound is added to the wells to reach the desired concentration in 1% (v/v) DMSO. The system is incubated at 37°C during 18 h and afterwards cells are harvested, washed with phosphate buffer saline and incubated during 30 min on ice with 120 µl per well of "lysis buffer" (10 mM Tris-HCl pH 7.4, 100 mM NaCl, 1 mM EDTA, 2 mM sodium orthovanadate, 1% (v/v) Triton X-100, 10% (v/v) glycerol, 0.1% (w/v) sodium dodecyl sulfate, 0.5 % (w/v) sodium deoxycholate, 4% (v/v) 25-fold concentrated commercial stock of protease inhibitors (Roche, Basel, Switzerland) and 1 mM phenylmethylsulfonyl fluoride). 60 µl of this mixture is then placed in an empty 96-well plate and the levels of Ser-396 phosphorylation are determined using a commercial ELISA kit (Biosource, Carlsbad, CA, USA), following manufacturer's instructions. The levels of phosphorylation are expressed as percentage values, after normalizing them to those in untreated cells and those values are used to calculate EC50s, as described above for GSK-3.
(An ELISA detects its analyte on a solid surface through an enzyme-linked reagent.)

T1 sequence (P49841 whole entry): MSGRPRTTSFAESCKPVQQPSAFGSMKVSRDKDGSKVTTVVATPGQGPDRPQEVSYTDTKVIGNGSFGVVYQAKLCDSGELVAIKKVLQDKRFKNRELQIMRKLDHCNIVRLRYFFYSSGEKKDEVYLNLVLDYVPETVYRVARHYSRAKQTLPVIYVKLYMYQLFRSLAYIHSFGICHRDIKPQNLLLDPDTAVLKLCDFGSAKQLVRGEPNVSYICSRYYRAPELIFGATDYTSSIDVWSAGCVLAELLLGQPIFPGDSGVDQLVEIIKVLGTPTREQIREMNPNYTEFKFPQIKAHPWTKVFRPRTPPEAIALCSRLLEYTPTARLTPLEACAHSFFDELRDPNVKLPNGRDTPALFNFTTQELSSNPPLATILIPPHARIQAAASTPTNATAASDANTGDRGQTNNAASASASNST

Regarding `CC(C)C(C)SSC(=O)N(Cc1ccccc1)C(=O)Nc1cccc2ccccc12` (centres unmarked) [Compound 3, 1-Benzyl-1-(4,5 dimethy-hexan-2,3-dithia-1-oyl)-3-naphthalen-1-yl-urea], the negative-log EC50 (pEC50) in experiment [1] is 6.79.

Turning to `O=C(Nc1ccc2c(c1)OCO2)N(Cc1ccccc1)C(=O)SSC1CCCC1` [Compound 7, 3-Benzo[1,3]dioxol-5-yl-1-benzyl-1-(1-propion-2,3-dithia-3-cyclopentyl-1-yl)-urea], the pEC50 in experiment [1] was 7.09.

In the case of `CCN(CC)C(=O)N(C(=O)SSCc1ccccc1)c1cc(F)cc(F)c1` [Compound 12], in experiment [1], the negative logarithm of the EC50 (pEC50) was 5.08.

On to `CCCCSSC(=O)N(Cc1ccccc1)C(=O)Nc1cccc2ccccc12` [Compound 2, 1-Benzyl-1-heptan-2,3-dithia-1-oyl-3-naphthalen-1-yl-urea], for which the negative-log EC50 (pEC50) in experiment [1] was 7.18.

With `CCCCCSSC(=O)N(Cc1ccccc1)C(=O)NCc1ccccc1` [Compound 10, 1,3-Dibenzyl-1-(octan-2,3-dithia-1-oyl)-urea], the pEC50 in experiment [2] was 5.15; in experiment [1], 6.53.

Regarding `CC(C)C(C)SSC(=O)N(Cc1ccccc1)C(=O)Nc1ccc(Oc2ccccc2)cc1` (centres unmarked) [Compound 9, 1-Benzyl-1-(hexan-2,5-dithia-4,5-dimethyl-1-yl)-3-(4-phenoxy-phenyl)-urea], the negative logarithm of the EC50 (pEC50) in experiment [1] was 7.46.

Turning to `O=C(Nc1cccc2ccccc12)N(Cc1ccccc1)C(=O)SSC1CCCC1` [Compound 5, 1-Benzyl-1-(3-cyclopentyl-propion-2,3-dithia-1-oyl)-3-naphthalen-1-yl-urea], the pEC50 in experiment [1] is 6.90.

As to `O=C(Nc1cccc2ccccc12)N(Cc1ccccc1)C(=O)SS` [Compound 15, Benzyl-(N-Naphthalen-1-yl-formamide)-carbamoyl sodium dithioperoxol], the negative-log EC50 (pEC50) in experiment [1] is 5.78.

In the case of `CCSSC(=O)N(C(=O)N(C)C)c1cccc(C(F)(F)F)c1` [Compound 13], the pEC50 in experiment [1] is 6.47.

In the case of `O=C(Nc1cccc2ccccc12)N(Cc1ccccc1)C(=O)SSCc1ccccc1` [Compound 6, 1-Benzyl-3-naphthalen-1-yl-1-(4-phenyl-butyr-2,3-dithia-1-oyl)-urea], the pEC50 is 5.17 in experiment [2] and 6.64 in experiment [1].

As for `O=C(Nc1cccc2ccccc12)N(Cc1ccccc1)C(=O)SSCCc1ccccc1` [Compound 4, 1-Benzyl-1-(5-phenyl-pentan-2,3-dithia-1-oyl)-3-naphthalen-1-yl-urea], the values for the pEC50 in experiment [2] and in experiment [1] were 5.18 and 7.24, respectively.

As to `C=CCSSC(=O)N(Cc1ccccc1)C(=O)Nc1cccc2ccccc12` [Compound 1, 1-Benzyl-1-hex-2,3-dithia-5-enoyl-3-naphthalen-1-yl-urea], the pEC50 in experiment [1] is 6.15.

In the case of `COC(=O)C(CSSC(=O)N(Cc1ccccc1)C(=O)Nc1cccc2ccccc12)NC(C)=O` (centres unmarked) [Compound 11, 2-Acetylamino-6-(1-benzyl-3-naphthalen-1-yl-ureido)-4-5-dithia-6-oxo-hexanoic acid methyl ester], the pEC50 in experiment [1] is 6.98.

For `CCOC(=O)CNC(=O)N(CC(=O)OCC)C(=O)SSCCc1ccccc1` [Compound 8, [3-Ethoxycarbonylmethyl-3-(pentan-2,3-dithia-5-phenyl-1-yl)-ureido]-acetic acid ethyl ester], the negative logarithm of the EC50 (pEC50) in experiment [1] was 7.01.
